Usually IC50 stands for the concentration that inhibits the measured activity by half. For orientation: inhibition means the drop in the measured response relative to a control, in per cent. A lower inhibition goes with a weak effect.

Experimental findings from patent US8309546B2, “Morpholinopurine derivatives” (Daiichi Sankyo Company, Limited, priority 2008, dated 2012) are described below.

The test system of assay [1] is human ovary cancer cell strain IGROV1. In words: Cell growth inhibition test (MTT), IGROV1. It is filed as cell-based. As to conditions: IGROV-1, 72 h, IGROV1, 3 days culture, read-out: concentration exhibiting anti-cell effect (GI50). In a few lines:
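MTT read-out at 540 nm after 4 h formazan formation gives living cell count following 3-day compound exposure at 37° C, 5% CO2. Seeding: 5000 AN3CA, 1000 IGROV1, 5000 HT29 cells/well. Growth rate T/C % = 100×[(B−C)/(A−C)], with C taken before dosing; GI50 = concentration giving 50% growth.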

Another assay deals with PI3Kα (Homo sapiens, UniProt P42336). In words: PI3K kinase activity inhibition assay. It is filed as biochemical. Particulars: Kinase-Glo Plus ATP detection, read-out: IC50 against PI3K. In outline: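 PI3Kα (50 nM solution) was reacted with 30 μM ATP and 45 μM PIP2 solutions, each in HEPES pH 7.4 with MgCl2 and DTT, for 2 h at room temperature. Remaining ATP was measured by Kinase-Glo Plus luminescence, and inhibition was derived from ATP consumed. IC50 was taken from curve fitting of the serial dilutions.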

The test system of assay [2] is S6 (serine 235 and 236) phosphorylation in AN3CA tumor. In words: S6 phosphorylation inhibition assay in xenograft. It is filed as in vivo, female nude mouse. As to conditions: Mus musculus, AN3-CA, oral, 6 hr after dosing. In a few lines: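 AN3CA human endometrial cancer cells grown as subcutaneous xenografts in female nude mice; compound dosed orally at a set concentration, tumors excised after a set time. Tumor lysates at equal protein were western blotted for p-Akt(T308) and p-S6(S235/236). Inhibition (%) = 100−100×(treated/untreated phospho signal).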

The structures appear in SMILES notation.

PI3Kα, sequence (P42336 whole entry, species assumed): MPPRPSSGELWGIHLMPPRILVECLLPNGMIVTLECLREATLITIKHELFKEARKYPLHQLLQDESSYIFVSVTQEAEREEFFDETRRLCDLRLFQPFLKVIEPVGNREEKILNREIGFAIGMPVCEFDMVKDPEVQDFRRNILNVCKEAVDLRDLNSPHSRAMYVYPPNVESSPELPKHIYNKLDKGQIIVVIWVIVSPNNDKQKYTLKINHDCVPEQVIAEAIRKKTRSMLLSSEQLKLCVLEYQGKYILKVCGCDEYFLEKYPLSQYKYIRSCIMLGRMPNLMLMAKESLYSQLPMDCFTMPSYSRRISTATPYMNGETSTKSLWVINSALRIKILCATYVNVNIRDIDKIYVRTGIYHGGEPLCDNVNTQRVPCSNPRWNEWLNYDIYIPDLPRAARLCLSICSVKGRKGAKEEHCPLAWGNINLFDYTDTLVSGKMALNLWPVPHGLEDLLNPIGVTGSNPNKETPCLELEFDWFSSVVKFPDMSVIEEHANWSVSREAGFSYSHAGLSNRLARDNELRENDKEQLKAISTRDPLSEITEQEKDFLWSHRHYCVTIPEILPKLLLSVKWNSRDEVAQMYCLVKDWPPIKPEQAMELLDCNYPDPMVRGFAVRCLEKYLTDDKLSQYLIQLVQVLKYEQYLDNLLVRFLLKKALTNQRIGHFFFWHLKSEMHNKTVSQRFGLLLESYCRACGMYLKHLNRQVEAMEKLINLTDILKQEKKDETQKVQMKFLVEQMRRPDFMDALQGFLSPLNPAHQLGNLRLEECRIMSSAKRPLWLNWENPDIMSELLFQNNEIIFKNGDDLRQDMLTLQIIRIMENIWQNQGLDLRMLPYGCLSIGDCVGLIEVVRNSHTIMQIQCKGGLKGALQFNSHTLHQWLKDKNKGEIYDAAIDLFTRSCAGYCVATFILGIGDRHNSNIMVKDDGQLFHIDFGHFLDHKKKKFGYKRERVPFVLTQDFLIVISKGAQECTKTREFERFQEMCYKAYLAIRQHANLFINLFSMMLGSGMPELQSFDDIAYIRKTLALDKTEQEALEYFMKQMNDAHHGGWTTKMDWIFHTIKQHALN
PI3Kα, sequence (P27986 whole entry partner, species assumed): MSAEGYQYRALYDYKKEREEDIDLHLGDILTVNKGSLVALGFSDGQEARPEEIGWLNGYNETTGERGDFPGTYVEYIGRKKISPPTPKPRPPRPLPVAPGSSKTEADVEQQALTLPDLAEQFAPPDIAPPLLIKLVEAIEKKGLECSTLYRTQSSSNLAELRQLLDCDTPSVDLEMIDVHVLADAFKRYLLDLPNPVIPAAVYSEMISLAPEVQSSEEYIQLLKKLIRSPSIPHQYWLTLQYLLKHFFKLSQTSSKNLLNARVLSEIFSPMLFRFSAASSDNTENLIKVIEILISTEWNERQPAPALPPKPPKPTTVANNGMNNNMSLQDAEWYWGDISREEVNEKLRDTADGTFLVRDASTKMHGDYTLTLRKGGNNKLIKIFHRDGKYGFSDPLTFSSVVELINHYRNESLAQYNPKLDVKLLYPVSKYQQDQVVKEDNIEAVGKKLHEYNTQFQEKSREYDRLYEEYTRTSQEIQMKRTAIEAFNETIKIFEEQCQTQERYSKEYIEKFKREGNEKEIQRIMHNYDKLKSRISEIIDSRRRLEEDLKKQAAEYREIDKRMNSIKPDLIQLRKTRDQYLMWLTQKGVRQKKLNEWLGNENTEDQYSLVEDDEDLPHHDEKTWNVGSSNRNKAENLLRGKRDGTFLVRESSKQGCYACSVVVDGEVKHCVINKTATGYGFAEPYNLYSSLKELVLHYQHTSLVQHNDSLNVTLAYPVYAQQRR

In the case of `C[C@H](O)C(=O)N1CCN(c2nc3c(N4CCOCC4)nc(-c4cnc(N)nc4)nc3n2CC2CC2)C[C@@H]1C` [Example 92, (2S)-1-{(2S)-4-[2-(2-Aminopyrimidin-5-yl)-9-(cyclopropylmethyl)-6-morpholin-4-yl-9H-purin-8-yl]-2-methylpiperazin-1-yl}-1-oxopropan-2-ol], the GI50 in assay [1] was at most 5000 nM. Besides, at PI3Kα, the IC50 fell in the range of 10 to 20 nM. The same compound came in with an inhibition at 10 mg/kg in assay [2] above 90%.
The like results for `CC(C)Cn1c(N2CCN(C(=O)[C@@H](C)O)CC2)nc2c(N3CCOCC3)nc(-c3cnc(N)nc3)nc21` [Example 93] were, in that order, at most 5000 nM, below 10 nM and above 90%.
The like results for `C[C@H](O)C(=O)N1CCN(c2nc3c(N4CCOCC4)nc(-c4cnc(N)nc4)nc3n2CC2CC2)C[C@H]1C` [Example 95, (2S)-1-{(2R)-4-[2-(2-Aminopyrimidin-5-yl)-9-(cyclopropylmethyl)-6-morpholin-4-yl-9H-purin-8-yl]-2-methylpiperazin-1-yl}-1-oxopropan-2-ol] were, in that order, at most 5000 nM, 10 to 20 nM and 70 to 90%.
The like results for `CC(=O)N1CCN(c2nc3c(N4CCOCC4)nc(-c4cnc(N)nc4)nc3n2CC2CC2)C[C@@H]1C` [Example 96, 5-{8-[(3S)-4-Acetyl-3-methylpiperazin-1-yl]-9-(cyclopropylmethyl)-6-morpholin-4-yl-9H-purin-2-yl}pyrimidin-2-amine] were, in that order, at most 5000 nM, below 10 nM and above 90%.
For `CC(=O)N1CCN(c2nc3c(N4CCOCC4)nc(-c4cnc(N)nc4)nc3n2CC2CC2)C[C@H]1C` [Example 97, 5-{8-[(3R)-4-Acetyl-3-methylpiperazin-1-yl]-9-(cyclopropylmethyl)-6-morpholin-4-yl-9H-purin-2-yl}pyrimidin-2-amine], the GI50 in assay [1] was at most 5000 nM. Further, the IC50 on PI3Kα was 10 to 20 nM. This compound also had an inhibition at 10 mg/kg in assay [2] of 70 to 90%.
Regarding `CC(=O)N1[C@H](C)CN(c2nc3c(N4CCOCC4)nc(-c4cnc(N)nc4)nc3n2CC2CC2)C[C@@H]1C` [Example 98, 5-{8-[4-Acetyl-cis-3,5-dimethylpiperazin-1-yl]-9-(cyclopropylmethyl)-6-morpholin-4-yl-9H-purin-2-yl}pyrimidin-2-amine], the GI50 in assay [1] is at most 5000 nM. For the same compound, the half-maximal inhibitory concentration (IC50) on PI3Kα is below 10 nM. The compound also yielded an inhibition at 10 mg/kg in assay [2] above 90%.
Consider `CC(C)Cn1c(N2CCN(C=O)[C@H](C)C2)nc2c(N3CCOCC3)nc(-c3cnc(N)nc3)nc21` [Example 100, (2R)-4-[2-(2-Aminopyrimidin-5-yl)-9-isobutyl-6-morpholin-4-yl-9H-purin-8-yl]-2-methylpiperazine-1-carboaldehyde], for which, in assay [1], the GI50 was at most 5000 nM. Moreover, the IC50 at PI3Kα is below 10 nM. Besides, the inhibition at 10 mg/kg in assay [2] was above 90%.
The like results for `CC(=O)N1CCN(c2nc3c(N4CCOCC4)nc(-c4cnc(N)nc4)nc3n2CC(C)C)C[C@@H]1C` [Example 101, 5-{8-[(3S)-4-Acetyl-3-methylpiperazin-1-yl]-9-isobutyl-6-morpholin-4-yl-9H-purin-2-yl}pyrimidin-2-amine] were, in that order, at most 5000 nM, 10 to 20 nM and above 90%.
On the same counts, the results for `CC(C)Cn1c(N2CCN(C=O)[C@@H](C)C2)nc2c(N3CCOCC3)nc(-c3cnc(N)nc3)nc21` [Example 102, (2S)-4-[2-(2-Aminopyrimidin-5-yl)-9-isobutyl-6-morpholin-4-yl-9H-purin-8-yl]-2-methylpiperazine-1-carboaldehyde] are at most 5000 nM, below 10 nM and above 90%.
Take `CC(C)Cn1c(N2CCN(C(=O)[C@H](C)O)[C@H](C)C2)nc2c(N3CCOCC3)nc(-c3cnc(N)nc3)nc21` [Example 103, (2S)-1-{(2R)-4-[2-(2-Aminopyrimidin-5-yl)-9-isobutyl-6-morpholin-4-yl-9H-purin-8-yl]-2-methylpiperazin-1-yl}-1-oxopropan-2-ol]: the GI50 in assay [1] was at most 5000 nM. Besides, at PI3Kα, the IC50 was in the range of 10 to 20 nM. The same compound showed an inhibition at 10 mg/kg in assay [2] above 90%.
The like results for `CC(C)Cn1c(N2CCN(C(=O)[C@H](C)O)[C@@H](C)C2)nc2c(N3CCOCC3)nc(-c3cnc(N)nc3)nc21` [Example 104, (2S)-1-{(2S)-4-[2-(2-Aminopyrimidin-5-yl)-9-isobutyl-6-morpholin-4-yl-9H-purin-8-yl]-2-methylpiperazin-1-yl}-1-oxopropan-2-ol] were, in that order, at most 5000 nM, 10 to 20 nM and above 90%.
The like results for `CNc1ncc(-c2nc(N3CCOCC3)c3nc(N4CCN(S(C)(=O)=O)[C@@H](C)C4)n(CC(F)(F)F)c3n2)cn1` [Example 105, N-Methyl-5-{8-[(3S)-3-methyl-4-(methylsulfonyl)piperazin-1-yl]-6-morpholin-4-yl-9-(2,2,2-trifluoroethyl)-9H-purin-2-yl}pyrimidin-2-amine] were, in that order, at most 5000 nM, below 10 nM and above 90%.
For `CNc1ncc(-c2nc(N3CCOCC3)c3nc(N4CCN(S(C)(=O)=O)[C@H](C)C4)n(CC(F)(F)F)c3n2)cn1` [Example 106, N-Methyl-5-{8-[(3R)-3-methyl-4-(methylsulfonyl)piperazin-1-yl]-6-morpholin-4-yl-9-(2,2,2-trifluoroethyl)-9H-purin-2-yl}pyrimidin-2-amine], the GI50 in assay [1] was at most 5000 nM. The IC50 on PI3Kα was below 10 nM. Further, in assay [2], the inhibition at 10 mg/kg was above 90%.
The like results for `CNc1ncc(-c2nc(N3CCOCC3)c3nc(N4CCN(C(C)=O)[C@@H](C)C4)n(CC(F)(F)F)c3n2)cn1` [Example 107, 5-{8-[(3S)-4-Acetyl-3-methylpiperazin-1-yl]-6-morpholin-4-yl-9-(2,2,2-trifluoroethyl)-9H-purin-2-yl}-N-methylpyrimidin-2-amine] were, in that order, at most 5000 nM, below 10 nM and above 90%.
Take `CNc1ncc(-c2nc(N3CCOCC3)c3nc(N4CCN(C(C)=O)[C@H](C)C4)n(CC(F)(F)F)c3n2)cn1` [Example 108, 5-{8-[(3R)-4-Acetyl-3-methylpiperazin-1-yl]-6-morpholin-4-yl-9-(2,2,2-trifluoroethyl)-9H-purin-2-yl}-N-methylpyrimidin-2-amine]: the GI50 in assay [1] is at most 5000 nM. At PI3Kα, the IC50 is 10 to 20 nM. In assay [2], this compound came in with an inhibition at 10 mg/kg above 90%.
Consider `C[C@H](O)C(=O)N1CCN(c2nc3c(N4CCOCC4)nc(-c4cnc(N)nc4)nc3n2CC(F)(F)F)C[C@@H]1C` [Example 109, (2S)-1-{(2S)-4-[2-(2-Aminopyrimidin-5-yl)-6-morpholin-4-yl-9-(2,2,2-trifluoroethyl)-9H-purin-8-yl]-2-methylpiperazin-1-yl}-1-oxopropan-2-ol], for which, in assay [1], the GI50 is at most 5000 nM. Besides, the IC50 at PI3Kα is below 10 nM. Further, the inhibition at 10 mg/kg in assay [2] is above 90%.
The like results for `C[C@H](O)C(=O)N1CCN(c2nc3c(N4CCOCC4)nc(-c4cnc(N)nc4)nc3n2CC(F)(F)F)C[C@H]1C` [Example 110, (2S)-1-{(2R)-4-[2-(2-Aminopyrimidin-5-yl)-6-morpholin-4-yl-9-(2,2,2-trifluoroethyl)-9H-purin-8-yl]-2-methylpiperazin-1-yl}-1-oxopropan-2-ol] were, in that order, at most 5000 nM, below 10 nM and above 90%.
The like results for `C[C@H]1CN(c2nc3c(N4CCOCC4)nc(-c4cnc(N)nc4)nc3n2CC(F)(F)F)CCN1C=O` [Example 111, (2S)-4-[2-(2-Aminopyrimidin-5-yl)-6-morpholin-4-yl-9-(2,2,2-trifluoroethyl)-9H-purin-8-yl]-2-methylpiperazine-1-carboaldehyde] were, in that order, at most 5000 nM, below 10 nM and above 90%.
On the same counts, the results for `C[C@@H]1CN(c2nc3c(N4CCOCC4)nc(-c4cnc(N)nc4)nc3n2CC(F)(F)F)CCN1C=O` [Example 112, (2R)-4-[2-(2-Aminopyrimidin-5-yl)-6-morpholin-4-yl-9-(2,2,2-trifluoroethyl)-9H-purin-8-yl]-2-methylpiperazine-1-carboaldehyde] are at most 5000 nM, below 10 nM and above 90%.
For the compound `C[C@@H](O)C(=O)N1CCN(c2nc3c(N4CCOCC4)nc(-c4cnc(N)nc4)nc3n2CC2CC2)C[C@@H]1C` [Example 113, (2R)-1-{(2S)-4-[2-(2-Aminopyrimidin-5-yl)-9-(cyclopropylmethyl)-6-morpholin-4-yl-9H-purin-8-yl]-2-methylpiperazin-1-yl}-1-oxopropan-2-ol], the GI50 in assay [1] was at most 5000 nM. For the same compound, the IC50 on PI3Kα was in the range of 10 to 20 nM. Besides, the inhibition at 10 mg/kg in assay [2] was above 90%.
On the same counts, the results for `C[C@@H]1CN(c2nc3c(N4CCOCC4)nc(-c4cnc(N)nc4)nc3n2CC2CC2)CCN1C(=O)[C@@H](C)O` [Example 114, (2R)-1-{(2R)-4-[2-(2-Aminopyrimidin-5-yl)-9-(cyclopropylmethyl)-6-morpholin-4-yl-9H-purin-8-yl]-2-methylpiperazin-1-yl}-1-oxopropan-2-ol] are at most 5000 nM, below 10 nM and above 90%.
